Patent US8729132B2, “Agomelatine hydrobromide hydrate and preparation thereof” (Les Laboratoires Servier, priority 2010, dated 2014)
Structures can show the parent of a compound that is named as a salt.

Tests used:
Format in all cases: physicochemical
[1] = Water solubility by HPLC, external standard method
Method: Using external standard method, the product of example 1 was tested with HPLC, compared with agomelatine crystalline form II.

[2] = Stability test, incubator at 40° C. for 30 days, HPLC
Method: Chromatographic conditions: C18 column; mobile phase: 10 mmol/L phosphate buffer (adjusted to pH 7.0 with NaOH): acetonitrile=2:7 (v/v); column temperature: 40° C.; detection wavelength: 220 nm; internal standard method was used on the products of examples 1 and 2.
Solutions of the products at 1 mg/mL were prepared with the mobile phase. 10 μL of each solution was injected into the liquid chromatograph system and chromatograms were recorded. The results of the purity are shown in examples 1 and 2.
The product of example 1 was placed in an incubator at 40° C. for 30 days to determine its stability with HPLC.

[3] = Stability test per Chinese Pharmacopoeia (affecting factors, accelerated, long-term); conditions: for Water: initial 5.25%; for Br: initial 23.21%; for Purity of agomelatine hydrobromide hydrate: initial value 99.89%
Method: The method for stability test as described in Chinese Pharmacopoeia was used in this test. • 1) Affecting factors test (in open container for 10 days): high temperature (60° C.), photostability under strong light ([…]), high humidity (92.5% RH at 25° C.) • 2) Accelerated test (in closed container for 6 months): at 40° C., humidity: 75% RH • 3) Long-term test (in closed container for 9 months): at 25° C., humidity: 60% RH

[4] = Accelerated test: closed container, 6 months, 40° C., 75% RH
[5] = Affecting factors: high humidity (92.5% RH at 25° C.), open container, 10 days
[6] = Affecting factors: high temperature (60° C.), open container, 10 days
[7] = Affecting factors: strong light (45001x), open container, 10 days
[8] = Long-term test: closed container, 9 months, 25° C., 60% RH

Question: What does the source list for COc1ccc2cccc(CCNC(C)=O)c2c1 [AG crystalline form II, N-[2-(7-methoxy-1-naphthyl)ethyl]-acetamide, reference compound]?
Answer: Agomelatine content ([1]; In 0.1N HCl): 0.30 mg/mL; Agomelatine content ([1]; In pH 7.0 buffer): 0.25 mg/mL; Agomelatine content ([1]; In water): 0.26 mg/mL

Question: For COc1ccc2cccc(CCNC(C)=O)c2c1 [AG•HBr•H2O, agomelatine hydrobromide hydrate], which “stability with HPLC (purity)” value ([2]; Day 0) is on record?
Answer: Its value is 99.7%.

Question: And the “stability with HPLC (purity)” value ([2]; Day 5)?
Answer: Its value is 99.7%.

Question: And the “stability with HPLC (purity)” value ([2]; Day 10)?
Answer: Its value is 99.6%.

Question: What about the “stability with HPLC (purity)” value ([2]; Day 30) of the same compound?
Answer: The value was 99.6%.

Question: And the Agomelatine content ([1]; In 0.1N HCl, hydrobromide hydrate)?
Answer: The Agomelatine content was 0.37 mg/mL.

Question: What about the Agomelatine content ([1]; In pH 7.0 buffer, hydrobromide hydrate) of the same compound?
Answer: The Agomelatine content was 0.31 mg/mL.

Question: And the Agomelatine content ([1]; In water, hydrobromide hydrate)?
Answer: The Agomelatine content was 0.33 mg/mL.

Question: What about the “solubility compared with agomelatine per se” value ([1]; in water, 0.1N HCl or pH 7.0 buffer) of the same compound?
Answer: Its value is “better solubility than agomelatine per se”.

Question: And the Water [3, 4]?
Answer: Its Water is 5.41%.

Question: And the Br [3, 4]?
Answer: Its Br is 23.07%.

Question: And the “Purity of agomelatine hydrobromide hydrate” value [3, 4]?
Answer: The value was 99.83%.

Question: What about the Water [3, 5] of the same compound?
Answer: The Water was 5.45%.

Question: And the Br [3, 5]?
Answer: Its Br is 23.11%.

Question: And the “Purity of agomelatine hydrobromide hydrate” value [3, 5]?
Answer: The value was 99.83%.

Question: What about the Water [3, 6] of the same compound?
Answer: The Water was 5.18%.

Question: What about the Br [3, 6] of the same compound?
Answer: The Br was 21.95%.

Question: And the “Purity of agomelatine hydrobromide hydrate” value [3, 6]?
Answer: The value was 99.87%.

Question: What about the Water [3, 7] of the same compound?
Answer: Its Water is 5.22%.

Question: And the Br [3, 7]?
Answer: Its Br is 22.61%.

Question: And the “Purity of agomelatine hydrobromide hydrate” value [3, 7]?
Answer: Its value is 99.71%.

Question: And the Water [3, 8]?
Answer: The Water was 5.18%.

Question: And the Br [3, 8]?
Answer: The Br was 22.52%.

Question: And the “Purity of agomelatine hydrobromide hydrate” value [3, 8]?
Answer: Its value is 99.84%.

Question: What about the “stability (overall conclusion)” value ([3]; affecting factors, accelerated and long-term tests) of the same compound?
Answer: The value was “stable”.
